Results: ChEMBL document CHEMBL4507291 (2021)

Assays:
[1] = target: Neurotensin receptor type 1 (Homo sapiens) (UniProt P30989); assay: Neurotensin NT1 Eurofins-Panlabs radioligand binding assay; parameters: ligand concentration 0.02 nM, non-specific ligand with concentration 1 µM Neurotensin, incubation time 45 min, incubation temperature 25 °C; conditions: Compound concentration 10.0 uM
[2] = target: Ephrin type-A receptor 4 (Homo sapiens) (UniProt P54764); assay: EPHA4 Kinase screen; conditions: Compound concentration 1.0 uM
Ephrin type-A receptor 4 (Homo sapiens), sequence (P54764 whole entry): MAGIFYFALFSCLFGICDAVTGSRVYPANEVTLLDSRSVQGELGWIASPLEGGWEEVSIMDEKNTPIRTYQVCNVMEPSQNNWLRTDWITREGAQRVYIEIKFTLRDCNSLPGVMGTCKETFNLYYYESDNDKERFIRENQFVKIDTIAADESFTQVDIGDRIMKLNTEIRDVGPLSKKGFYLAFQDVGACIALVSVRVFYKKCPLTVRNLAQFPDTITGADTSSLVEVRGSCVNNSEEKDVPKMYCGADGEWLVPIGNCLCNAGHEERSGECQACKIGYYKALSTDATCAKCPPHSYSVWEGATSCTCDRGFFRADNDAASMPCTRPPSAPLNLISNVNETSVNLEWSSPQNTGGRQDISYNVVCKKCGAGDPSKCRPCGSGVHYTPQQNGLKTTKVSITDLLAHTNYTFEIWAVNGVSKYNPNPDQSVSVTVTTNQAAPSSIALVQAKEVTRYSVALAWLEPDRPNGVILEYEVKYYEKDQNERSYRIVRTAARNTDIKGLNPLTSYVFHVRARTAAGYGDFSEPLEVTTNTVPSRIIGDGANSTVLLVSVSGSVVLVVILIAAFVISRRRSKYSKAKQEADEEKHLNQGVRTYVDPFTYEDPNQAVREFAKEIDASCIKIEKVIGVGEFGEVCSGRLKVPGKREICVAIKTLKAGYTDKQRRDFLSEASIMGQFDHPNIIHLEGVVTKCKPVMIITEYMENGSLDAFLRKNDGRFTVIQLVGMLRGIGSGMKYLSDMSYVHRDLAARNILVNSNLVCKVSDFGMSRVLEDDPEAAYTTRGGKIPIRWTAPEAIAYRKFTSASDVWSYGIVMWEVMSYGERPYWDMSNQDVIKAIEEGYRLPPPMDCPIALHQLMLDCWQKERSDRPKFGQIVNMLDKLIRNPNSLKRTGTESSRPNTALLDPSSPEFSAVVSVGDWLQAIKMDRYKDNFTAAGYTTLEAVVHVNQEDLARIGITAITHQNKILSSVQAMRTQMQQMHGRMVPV

[3] = target: Ephrin type-A receptor 2 (Homo sapiens) (UniProt P29317); assay: EPHA2 Kinase screen; conditions: Compound concentration 1.0 uM
[4] = organism: Homo sapiens; assay: Glutamate, Metabotropic, mGlu5 Eurofins-Panlabs radioligand binding assay; conditions: Compound concentration 10.0 uM
[5] = target: B2 bradykinin receptor (Homo sapiens) (UniProt P30411); conditions: Compound concentration 10.0 uM
B2 bradykinin receptor (Homo sapiens), sequence (P30411 whole entry): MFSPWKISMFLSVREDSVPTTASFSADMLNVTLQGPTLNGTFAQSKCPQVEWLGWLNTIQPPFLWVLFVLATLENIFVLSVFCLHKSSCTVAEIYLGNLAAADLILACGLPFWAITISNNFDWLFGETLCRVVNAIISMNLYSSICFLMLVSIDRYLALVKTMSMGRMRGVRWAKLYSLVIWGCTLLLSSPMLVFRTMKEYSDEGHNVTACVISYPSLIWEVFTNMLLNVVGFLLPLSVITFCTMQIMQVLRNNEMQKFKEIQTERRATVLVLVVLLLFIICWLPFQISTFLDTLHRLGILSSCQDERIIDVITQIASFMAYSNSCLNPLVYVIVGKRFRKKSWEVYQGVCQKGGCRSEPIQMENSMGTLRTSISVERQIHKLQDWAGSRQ

[6] = target: Ribosomal protein S6 kinase alpha-2 (Homo sapiens) (UniProt Q15349); assay: RPS6KA2 (RSK3) Kinase screen; conditions: Compound concentration 1.0 uM
Ribosomal protein S6 kinase alpha-2 (Homo sapiens), sequence (Q15349 whole entry): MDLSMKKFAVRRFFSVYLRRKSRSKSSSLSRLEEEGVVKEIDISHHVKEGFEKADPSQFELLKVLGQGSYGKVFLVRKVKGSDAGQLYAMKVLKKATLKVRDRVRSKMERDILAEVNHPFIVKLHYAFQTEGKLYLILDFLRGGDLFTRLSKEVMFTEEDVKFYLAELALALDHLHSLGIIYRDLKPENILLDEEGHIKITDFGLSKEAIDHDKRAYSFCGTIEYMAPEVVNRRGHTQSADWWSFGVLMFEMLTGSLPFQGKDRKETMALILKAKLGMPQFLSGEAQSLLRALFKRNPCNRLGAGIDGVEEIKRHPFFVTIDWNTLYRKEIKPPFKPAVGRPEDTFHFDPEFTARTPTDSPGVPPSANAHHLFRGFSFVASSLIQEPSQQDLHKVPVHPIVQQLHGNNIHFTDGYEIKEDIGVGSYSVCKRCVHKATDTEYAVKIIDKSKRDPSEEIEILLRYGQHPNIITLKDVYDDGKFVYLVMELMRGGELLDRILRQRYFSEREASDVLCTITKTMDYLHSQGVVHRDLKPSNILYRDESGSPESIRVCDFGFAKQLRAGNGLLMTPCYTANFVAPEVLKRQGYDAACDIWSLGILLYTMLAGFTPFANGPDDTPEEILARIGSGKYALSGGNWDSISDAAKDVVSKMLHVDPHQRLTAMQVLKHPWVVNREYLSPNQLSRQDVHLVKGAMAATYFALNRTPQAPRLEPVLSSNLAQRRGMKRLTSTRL

[7] = target: Macrophage colony-stimulating factor 1 receptor (Homo sapiens) (UniProt P07333); assay: CSF1R (FMS) Kinase screen; conditions: Compound concentration 1.0 uM
Macrophage colony-stimulating factor 1 receptor (Homo sapiens), sequence (P07333 whole entry): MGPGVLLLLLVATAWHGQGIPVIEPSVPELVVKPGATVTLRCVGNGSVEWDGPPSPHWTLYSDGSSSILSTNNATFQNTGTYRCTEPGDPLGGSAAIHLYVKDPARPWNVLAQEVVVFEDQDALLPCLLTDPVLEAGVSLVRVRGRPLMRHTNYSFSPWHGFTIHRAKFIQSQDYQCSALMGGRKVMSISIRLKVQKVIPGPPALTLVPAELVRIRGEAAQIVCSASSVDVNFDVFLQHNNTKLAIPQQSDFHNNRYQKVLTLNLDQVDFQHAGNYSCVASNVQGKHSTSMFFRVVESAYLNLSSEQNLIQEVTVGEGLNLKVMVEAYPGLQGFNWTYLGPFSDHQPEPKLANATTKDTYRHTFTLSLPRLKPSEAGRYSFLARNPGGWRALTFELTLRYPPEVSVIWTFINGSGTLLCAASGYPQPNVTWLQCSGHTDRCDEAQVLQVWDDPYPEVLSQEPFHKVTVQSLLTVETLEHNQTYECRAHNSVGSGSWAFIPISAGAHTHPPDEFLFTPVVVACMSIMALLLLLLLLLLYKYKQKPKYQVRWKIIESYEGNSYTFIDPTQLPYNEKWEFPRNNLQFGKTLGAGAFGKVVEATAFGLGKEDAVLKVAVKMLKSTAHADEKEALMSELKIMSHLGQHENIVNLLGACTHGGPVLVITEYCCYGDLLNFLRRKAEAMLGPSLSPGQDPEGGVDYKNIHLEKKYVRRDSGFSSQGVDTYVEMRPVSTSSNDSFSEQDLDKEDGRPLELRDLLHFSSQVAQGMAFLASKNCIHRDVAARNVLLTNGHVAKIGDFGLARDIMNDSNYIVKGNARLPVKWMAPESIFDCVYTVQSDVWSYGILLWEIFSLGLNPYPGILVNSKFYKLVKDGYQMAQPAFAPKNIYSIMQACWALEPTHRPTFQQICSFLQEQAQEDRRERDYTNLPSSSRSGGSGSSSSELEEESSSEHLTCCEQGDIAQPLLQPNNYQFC

[8] = target: T1, Tyrosine-protein kinase JAK3 (Homo sapiens) (UniProt P52333); assay: JAK3 Kinase screen; conditions: Compound concentration 1.0 uM
T1 sequence (whole entry): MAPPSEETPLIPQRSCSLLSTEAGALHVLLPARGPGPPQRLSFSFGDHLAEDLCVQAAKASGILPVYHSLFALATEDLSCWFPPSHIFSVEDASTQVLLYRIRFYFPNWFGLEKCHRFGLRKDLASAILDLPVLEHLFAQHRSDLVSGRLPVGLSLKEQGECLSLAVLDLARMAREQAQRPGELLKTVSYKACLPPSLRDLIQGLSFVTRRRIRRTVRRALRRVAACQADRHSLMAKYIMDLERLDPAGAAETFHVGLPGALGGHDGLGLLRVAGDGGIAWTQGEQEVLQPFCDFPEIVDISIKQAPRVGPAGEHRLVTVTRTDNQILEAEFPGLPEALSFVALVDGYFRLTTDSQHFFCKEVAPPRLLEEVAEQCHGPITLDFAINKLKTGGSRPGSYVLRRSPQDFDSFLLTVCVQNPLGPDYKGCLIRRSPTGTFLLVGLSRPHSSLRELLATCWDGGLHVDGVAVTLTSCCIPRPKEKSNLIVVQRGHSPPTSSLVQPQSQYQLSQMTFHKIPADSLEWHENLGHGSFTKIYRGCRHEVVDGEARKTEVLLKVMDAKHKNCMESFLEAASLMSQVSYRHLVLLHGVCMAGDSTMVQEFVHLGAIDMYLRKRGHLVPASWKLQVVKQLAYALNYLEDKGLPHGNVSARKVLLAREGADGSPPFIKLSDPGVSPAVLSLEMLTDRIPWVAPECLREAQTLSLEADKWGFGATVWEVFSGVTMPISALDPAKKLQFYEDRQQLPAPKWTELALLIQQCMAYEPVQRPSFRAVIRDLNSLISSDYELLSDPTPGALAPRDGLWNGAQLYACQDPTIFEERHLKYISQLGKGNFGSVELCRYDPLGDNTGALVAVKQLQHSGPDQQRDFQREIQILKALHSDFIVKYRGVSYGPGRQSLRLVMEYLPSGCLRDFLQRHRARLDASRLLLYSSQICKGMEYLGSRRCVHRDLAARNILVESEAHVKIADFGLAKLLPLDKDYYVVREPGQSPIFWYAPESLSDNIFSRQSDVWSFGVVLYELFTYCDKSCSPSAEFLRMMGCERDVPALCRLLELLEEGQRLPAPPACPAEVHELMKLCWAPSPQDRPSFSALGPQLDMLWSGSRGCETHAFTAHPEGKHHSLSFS

[9] = target: T2, Ephrin type-A receptor 3 (Homo sapiens) (UniProt P29320); assay: EPHA3 Kinase screen; conditions: Compound concentration 1.0 uM
T2 sequence (whole entry): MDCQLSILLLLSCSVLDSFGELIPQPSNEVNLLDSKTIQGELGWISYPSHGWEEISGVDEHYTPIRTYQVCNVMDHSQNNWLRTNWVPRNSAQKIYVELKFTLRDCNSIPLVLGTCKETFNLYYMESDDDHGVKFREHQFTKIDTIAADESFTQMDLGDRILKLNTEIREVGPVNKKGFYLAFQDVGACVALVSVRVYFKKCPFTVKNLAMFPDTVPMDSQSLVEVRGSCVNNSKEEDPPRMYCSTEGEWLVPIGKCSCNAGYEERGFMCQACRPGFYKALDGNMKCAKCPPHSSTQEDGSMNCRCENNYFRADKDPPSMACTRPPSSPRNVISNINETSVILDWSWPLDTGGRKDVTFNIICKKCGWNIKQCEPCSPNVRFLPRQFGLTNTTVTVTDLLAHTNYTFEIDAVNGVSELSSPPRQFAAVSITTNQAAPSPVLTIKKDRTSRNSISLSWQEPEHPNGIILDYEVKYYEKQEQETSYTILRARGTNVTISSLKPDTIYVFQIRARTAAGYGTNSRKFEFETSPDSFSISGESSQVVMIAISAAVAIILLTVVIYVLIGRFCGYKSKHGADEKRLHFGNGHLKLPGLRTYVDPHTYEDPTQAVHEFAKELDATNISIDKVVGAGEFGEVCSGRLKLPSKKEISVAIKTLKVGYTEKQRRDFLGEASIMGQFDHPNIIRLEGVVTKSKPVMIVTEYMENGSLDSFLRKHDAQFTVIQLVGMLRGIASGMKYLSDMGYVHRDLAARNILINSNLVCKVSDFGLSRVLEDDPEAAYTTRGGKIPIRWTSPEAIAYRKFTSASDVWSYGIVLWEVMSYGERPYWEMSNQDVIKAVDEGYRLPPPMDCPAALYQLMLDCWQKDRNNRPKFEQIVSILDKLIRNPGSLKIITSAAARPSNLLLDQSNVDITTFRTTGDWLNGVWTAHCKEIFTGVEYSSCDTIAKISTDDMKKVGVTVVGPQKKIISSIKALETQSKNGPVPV

[10] = tested on: Dual specificity mitogen-activated protein kinase kinase 1 (Homo sapiens), Q02750 [S218D,S222D]; assay: MAP2K1 (MEK1) S218D S222D Kinase screen; conditions: Compound concentration 1.0 uM
[11] = target: T3, 5-hydroxytryptamine receptor 2C (Homo sapiens) (UniProt P28335); conditions: Compound concentration 10.0 uM
T3 sequence (whole entry): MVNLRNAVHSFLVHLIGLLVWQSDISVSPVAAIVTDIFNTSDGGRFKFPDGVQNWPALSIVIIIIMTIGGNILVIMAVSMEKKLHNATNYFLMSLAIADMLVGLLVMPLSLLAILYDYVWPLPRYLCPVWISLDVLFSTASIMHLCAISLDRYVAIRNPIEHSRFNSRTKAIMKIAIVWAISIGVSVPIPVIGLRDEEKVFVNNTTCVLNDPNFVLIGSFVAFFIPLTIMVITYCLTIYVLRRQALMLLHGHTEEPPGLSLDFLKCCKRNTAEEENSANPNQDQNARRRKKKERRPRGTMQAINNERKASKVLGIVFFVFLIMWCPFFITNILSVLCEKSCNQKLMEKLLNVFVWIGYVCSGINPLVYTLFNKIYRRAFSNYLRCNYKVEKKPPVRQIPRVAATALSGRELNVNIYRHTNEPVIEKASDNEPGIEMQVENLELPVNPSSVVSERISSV

[12] = target: PAS domain-containing serine/threonine-protein kinase (Homo sapiens) (UniProt Q96RG2); assay: PASK Kinase screen; conditions: Compound concentration 1.0 uM
PAS domain-containing serine/threonine-protein kinase (Homo sapiens), sequence (Q96RG2 whole entry, the tested form may be a part): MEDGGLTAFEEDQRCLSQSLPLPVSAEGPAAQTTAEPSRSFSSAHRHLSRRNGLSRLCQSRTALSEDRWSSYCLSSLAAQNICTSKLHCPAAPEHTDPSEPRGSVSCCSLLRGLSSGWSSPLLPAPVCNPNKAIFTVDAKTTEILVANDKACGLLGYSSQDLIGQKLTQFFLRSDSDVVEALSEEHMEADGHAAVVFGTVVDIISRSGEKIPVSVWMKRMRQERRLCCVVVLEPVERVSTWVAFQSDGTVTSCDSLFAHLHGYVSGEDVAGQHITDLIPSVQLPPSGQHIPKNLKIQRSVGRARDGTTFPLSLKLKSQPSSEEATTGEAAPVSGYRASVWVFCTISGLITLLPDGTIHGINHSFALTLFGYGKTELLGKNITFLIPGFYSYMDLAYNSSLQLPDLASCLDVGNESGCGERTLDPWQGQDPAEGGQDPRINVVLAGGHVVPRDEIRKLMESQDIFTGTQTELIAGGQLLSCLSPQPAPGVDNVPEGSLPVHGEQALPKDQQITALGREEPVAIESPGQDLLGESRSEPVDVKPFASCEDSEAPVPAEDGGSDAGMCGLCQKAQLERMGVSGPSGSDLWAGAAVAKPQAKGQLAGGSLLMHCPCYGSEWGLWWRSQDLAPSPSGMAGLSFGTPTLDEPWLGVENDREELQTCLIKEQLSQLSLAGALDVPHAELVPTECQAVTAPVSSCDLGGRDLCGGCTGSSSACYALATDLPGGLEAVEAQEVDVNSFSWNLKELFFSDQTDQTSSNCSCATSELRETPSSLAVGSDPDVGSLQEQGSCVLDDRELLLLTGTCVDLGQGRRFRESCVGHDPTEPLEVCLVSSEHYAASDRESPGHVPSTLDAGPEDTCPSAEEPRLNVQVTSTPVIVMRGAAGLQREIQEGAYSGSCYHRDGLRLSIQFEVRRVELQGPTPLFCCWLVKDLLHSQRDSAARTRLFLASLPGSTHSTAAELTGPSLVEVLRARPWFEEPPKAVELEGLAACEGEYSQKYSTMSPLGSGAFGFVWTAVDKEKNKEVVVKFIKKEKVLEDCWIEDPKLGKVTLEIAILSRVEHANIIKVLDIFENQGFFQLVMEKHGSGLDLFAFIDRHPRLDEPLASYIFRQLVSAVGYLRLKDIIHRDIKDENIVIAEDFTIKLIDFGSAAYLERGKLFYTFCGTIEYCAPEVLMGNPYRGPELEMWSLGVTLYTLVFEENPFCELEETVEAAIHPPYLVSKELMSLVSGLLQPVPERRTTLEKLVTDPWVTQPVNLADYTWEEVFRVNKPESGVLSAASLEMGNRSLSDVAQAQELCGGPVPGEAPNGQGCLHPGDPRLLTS

Measured: inhibition

Neurotensin receptor type 1 (Homo sapiens), sequence (P30989 whole entry): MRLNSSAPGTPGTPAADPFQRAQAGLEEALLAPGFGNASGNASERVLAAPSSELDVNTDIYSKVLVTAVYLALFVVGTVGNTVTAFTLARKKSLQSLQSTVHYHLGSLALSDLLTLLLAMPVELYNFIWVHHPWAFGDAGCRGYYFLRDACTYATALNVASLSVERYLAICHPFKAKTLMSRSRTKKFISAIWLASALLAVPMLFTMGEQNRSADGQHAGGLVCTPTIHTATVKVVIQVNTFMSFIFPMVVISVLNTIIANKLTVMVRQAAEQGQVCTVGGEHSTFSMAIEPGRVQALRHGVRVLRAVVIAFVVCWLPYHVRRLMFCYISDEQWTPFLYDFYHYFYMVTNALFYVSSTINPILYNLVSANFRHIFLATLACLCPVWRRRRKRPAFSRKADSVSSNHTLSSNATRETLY

C[C@@H]1CN(c2cc(-c3n[nH]c4ccc(OC5(C)CC5)cc34)ncn2)C[C@H](C)O1 [MLi-2]
inactive: [1] -2% | [2] 4.82% | [3] -4.26% | [4] 0% | [5] 7% | [6] 7.53% | [7] 6.91% | [8] 7.05% | [9] -3.28% | [10] 6.92% | [11] -7% | [12] -0.0985%
